From patent US20090304692A1, “TRIAZINE COMPOUNDS AS PI3 KINASE AND MTOR INHIBITORS” (Wyeth, priority 2008, published 2009)
Values joined by “and” are separate entries in the source; they are usually repeats but may differ in a detail not shown here. Identical values can stand only once. Like-named read-outs stand apart in the source and are kept apart here.

Columns and labels:
[1] = target: PI3K-α (Homo sapiens, UniProt P42336); assay: PI3K-alpha fluorescence polarization assay; settings: read-out: IC50 PI3Kα
[2] = target: PI3K-γ (Homo sapiens, UniProt P48736); assay: PI3K-gamma fluorescence polarization assay; settings: read-out: IC50 PI3Kγ
[3] = target: Human mTOR (FLAG-TOR) (Homo sapiens, UniProt P42345); assay: mTOR kinase assay (DELFIA format, purified enzyme); assay type: biochemical
[4] = tested on: human breast MDA-MB-361 tumor cell line; assay: In vitro cell culture growth assay (MTS), MDA-MB-361; assay type: cell-based; settings: read-out: IC50 MDA-MB-361
[5] = tested on: human prostate PC3-mm2 tumor cell line; assay: In vitro cell culture growth assay (MTS), PC3-mm2; assay type: cell-based; settings: read-out: IC50 PC3-mm2
[6] = Homo sapiens, MDA-MB-361, 72 h, MTS cell growth assay, three days after drug treatment
[7] = Homo sapiens, PC3MM2, 72 h, MTS cell growth assay, three days after drug treatment, PC3-mm2 cells
[8] = Homo sapiens, PC3MM2, 72 h, MTS cell growth assay, three days after drug treatment
[9] = Homo sapiens, 72 h, MTS cell growth assay, three days after drug treatment, MDA-MB-361 cells
[10] = Homo sapiens, MDA-MB-361, 72 h, MTS cell growth assay, three days after drug treatment, MDA-MB-361 cells
[11] = MTS cell growth assay, three days after drug treatment, listed as 10

PI3K-γ, sequence (P48736 whole entry, species assumed): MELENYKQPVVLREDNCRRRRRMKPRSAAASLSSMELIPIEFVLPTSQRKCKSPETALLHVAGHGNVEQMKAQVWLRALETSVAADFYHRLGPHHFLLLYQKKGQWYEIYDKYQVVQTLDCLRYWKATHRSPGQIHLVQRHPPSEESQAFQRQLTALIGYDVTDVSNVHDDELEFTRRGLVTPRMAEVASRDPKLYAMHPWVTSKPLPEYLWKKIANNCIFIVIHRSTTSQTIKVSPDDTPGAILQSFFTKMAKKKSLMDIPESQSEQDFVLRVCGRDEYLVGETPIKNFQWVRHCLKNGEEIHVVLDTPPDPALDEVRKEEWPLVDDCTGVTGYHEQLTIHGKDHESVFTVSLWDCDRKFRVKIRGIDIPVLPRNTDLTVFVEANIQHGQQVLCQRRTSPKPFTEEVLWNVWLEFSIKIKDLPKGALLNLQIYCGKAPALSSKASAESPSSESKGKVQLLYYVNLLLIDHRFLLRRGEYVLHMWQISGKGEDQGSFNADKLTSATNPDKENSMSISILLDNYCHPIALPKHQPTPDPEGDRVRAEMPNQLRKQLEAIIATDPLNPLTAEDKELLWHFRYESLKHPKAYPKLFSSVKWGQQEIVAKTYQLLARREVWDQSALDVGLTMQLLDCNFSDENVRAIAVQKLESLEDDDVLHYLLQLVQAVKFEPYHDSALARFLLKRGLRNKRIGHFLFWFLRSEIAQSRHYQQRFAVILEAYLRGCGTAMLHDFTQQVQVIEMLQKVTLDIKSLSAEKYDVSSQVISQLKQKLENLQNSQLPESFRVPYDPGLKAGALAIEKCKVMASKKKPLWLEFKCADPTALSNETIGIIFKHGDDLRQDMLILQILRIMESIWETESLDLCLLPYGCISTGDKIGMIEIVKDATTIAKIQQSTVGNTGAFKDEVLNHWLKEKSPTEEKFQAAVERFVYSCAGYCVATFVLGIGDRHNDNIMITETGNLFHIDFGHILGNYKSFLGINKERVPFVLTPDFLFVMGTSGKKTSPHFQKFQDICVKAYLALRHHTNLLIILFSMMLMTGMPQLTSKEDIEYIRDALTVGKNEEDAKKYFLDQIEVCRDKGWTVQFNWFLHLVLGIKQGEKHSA
Human mTOR (FLAG-TOR), sequence (P42345 1360-2549 limits assumed): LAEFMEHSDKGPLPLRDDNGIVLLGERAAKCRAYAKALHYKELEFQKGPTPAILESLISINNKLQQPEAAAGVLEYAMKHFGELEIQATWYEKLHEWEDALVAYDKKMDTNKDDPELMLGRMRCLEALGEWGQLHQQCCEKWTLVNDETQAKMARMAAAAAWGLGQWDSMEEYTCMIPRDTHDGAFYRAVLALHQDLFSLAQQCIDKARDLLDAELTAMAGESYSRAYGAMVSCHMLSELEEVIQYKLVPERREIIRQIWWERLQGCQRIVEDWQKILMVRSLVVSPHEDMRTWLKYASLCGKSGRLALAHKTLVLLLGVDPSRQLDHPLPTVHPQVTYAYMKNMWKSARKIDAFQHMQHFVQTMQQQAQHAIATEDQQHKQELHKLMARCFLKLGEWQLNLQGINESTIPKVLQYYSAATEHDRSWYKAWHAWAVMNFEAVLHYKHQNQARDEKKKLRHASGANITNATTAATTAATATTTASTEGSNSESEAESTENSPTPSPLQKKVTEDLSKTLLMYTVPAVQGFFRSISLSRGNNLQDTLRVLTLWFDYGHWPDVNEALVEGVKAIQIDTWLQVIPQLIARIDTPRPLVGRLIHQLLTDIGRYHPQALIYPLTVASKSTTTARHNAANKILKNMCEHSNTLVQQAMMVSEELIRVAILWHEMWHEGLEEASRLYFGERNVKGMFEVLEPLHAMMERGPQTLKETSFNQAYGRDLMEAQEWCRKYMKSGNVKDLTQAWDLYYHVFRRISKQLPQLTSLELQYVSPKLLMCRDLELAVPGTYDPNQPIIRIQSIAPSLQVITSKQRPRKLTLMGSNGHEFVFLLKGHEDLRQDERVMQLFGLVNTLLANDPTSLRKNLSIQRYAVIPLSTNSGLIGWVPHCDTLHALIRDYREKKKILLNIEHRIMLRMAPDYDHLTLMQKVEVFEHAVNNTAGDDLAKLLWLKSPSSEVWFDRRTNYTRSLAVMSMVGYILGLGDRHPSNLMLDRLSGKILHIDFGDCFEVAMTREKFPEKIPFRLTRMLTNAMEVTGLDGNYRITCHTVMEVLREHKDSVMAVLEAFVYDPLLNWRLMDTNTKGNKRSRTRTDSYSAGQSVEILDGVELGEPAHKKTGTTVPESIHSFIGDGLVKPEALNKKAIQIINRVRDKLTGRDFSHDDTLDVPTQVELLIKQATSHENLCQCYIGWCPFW
PI3K-α, sequence (P42336 whole entry, species assumed): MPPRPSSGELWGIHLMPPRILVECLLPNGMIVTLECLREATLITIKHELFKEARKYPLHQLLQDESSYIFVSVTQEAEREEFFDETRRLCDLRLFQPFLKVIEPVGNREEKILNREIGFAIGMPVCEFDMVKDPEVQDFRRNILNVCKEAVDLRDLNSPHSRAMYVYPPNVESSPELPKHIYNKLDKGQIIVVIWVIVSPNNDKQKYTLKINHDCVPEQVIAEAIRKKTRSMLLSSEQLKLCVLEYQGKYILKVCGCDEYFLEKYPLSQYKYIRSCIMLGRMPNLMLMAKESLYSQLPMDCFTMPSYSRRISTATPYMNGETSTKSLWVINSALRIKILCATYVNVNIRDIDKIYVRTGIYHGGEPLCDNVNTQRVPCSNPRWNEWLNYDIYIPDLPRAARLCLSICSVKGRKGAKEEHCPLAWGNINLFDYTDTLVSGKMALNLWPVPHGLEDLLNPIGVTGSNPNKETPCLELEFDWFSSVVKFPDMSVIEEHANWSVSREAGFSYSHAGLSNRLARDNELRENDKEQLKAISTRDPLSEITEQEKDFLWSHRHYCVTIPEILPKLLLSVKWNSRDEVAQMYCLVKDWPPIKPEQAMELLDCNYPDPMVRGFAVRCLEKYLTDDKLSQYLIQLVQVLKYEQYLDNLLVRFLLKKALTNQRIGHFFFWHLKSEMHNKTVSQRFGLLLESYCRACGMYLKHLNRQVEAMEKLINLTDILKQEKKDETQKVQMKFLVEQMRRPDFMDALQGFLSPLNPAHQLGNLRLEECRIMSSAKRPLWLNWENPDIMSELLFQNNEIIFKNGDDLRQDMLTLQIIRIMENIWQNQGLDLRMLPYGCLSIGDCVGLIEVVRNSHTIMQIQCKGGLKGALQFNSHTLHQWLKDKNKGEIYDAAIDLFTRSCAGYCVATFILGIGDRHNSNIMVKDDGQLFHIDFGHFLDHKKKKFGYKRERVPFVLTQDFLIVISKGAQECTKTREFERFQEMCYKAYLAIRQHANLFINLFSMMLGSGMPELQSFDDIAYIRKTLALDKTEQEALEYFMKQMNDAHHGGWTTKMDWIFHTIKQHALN
PI3K-α, sequence (P27986 whole entry partner, species assumed): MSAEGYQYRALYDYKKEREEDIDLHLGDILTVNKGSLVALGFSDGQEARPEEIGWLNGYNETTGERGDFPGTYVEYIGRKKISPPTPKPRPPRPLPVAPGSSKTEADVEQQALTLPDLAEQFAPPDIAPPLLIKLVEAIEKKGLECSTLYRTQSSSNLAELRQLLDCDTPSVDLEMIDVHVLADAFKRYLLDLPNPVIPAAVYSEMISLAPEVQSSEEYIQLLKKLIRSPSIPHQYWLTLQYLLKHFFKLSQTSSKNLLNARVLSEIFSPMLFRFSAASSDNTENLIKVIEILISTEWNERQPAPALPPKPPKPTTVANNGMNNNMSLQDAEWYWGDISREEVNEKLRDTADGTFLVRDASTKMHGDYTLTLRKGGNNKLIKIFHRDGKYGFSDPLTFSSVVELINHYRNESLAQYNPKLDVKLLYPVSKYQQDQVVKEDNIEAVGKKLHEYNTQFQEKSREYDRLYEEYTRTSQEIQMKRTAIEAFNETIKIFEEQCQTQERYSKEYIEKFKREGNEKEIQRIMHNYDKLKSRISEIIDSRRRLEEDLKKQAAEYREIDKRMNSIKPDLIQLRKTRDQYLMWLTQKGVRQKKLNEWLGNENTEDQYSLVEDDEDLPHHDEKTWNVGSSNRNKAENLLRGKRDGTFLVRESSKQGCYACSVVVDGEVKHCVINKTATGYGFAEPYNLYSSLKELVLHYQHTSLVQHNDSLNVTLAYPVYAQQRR

Structure (SMILES) | IC50 [1] | IC50 [2] | IC50 ([3]; read-out: IC50 mTOR) | IC50 [4, 6] | IC50 [5, 7] | IC50 [5, 8] | IC50 [4, 9] | further results
COCCOc1nc(-c2ccc(NC(=O)Nc3ccncc3)cc2)nc(N2CCOCC2)n1 [Example 200, 1-{4-[4-(2-methoxyethoxy)-6-morpholin-4-yl-1,3,5-triazin-2-yl]phenyl}-3-pyridin-4-ylurea] | 14 nM | 128 nM | 6.5 nM and 6.45 nM | 162 nM | 248 nM | 248 nM |  | IC50 ([1]; listed as 714): 15.5 nM; IC50 ([2]; listed as 714): 69 nM
CC(C)(C)OC(=O)N1CC(Nc2nc(-c3ccc(NC(=O)Nc4ccc(F)cc4)cc3)nc(N3CCOCC3)n2)C1 [Example 13, tert-butyl 3-{[4-(4-{[(4-fluorophenyl)carbamoyl]-amino}phenyl)-6-morpholin-4-yl-1,3,5-triazin-2-yl]amino}azetidine-1-carboxylate] | 51 nM | 879 nM | 11.5 nM | 603 nM |  | 845 nM |  | 
CN(C)CCCNC(=O)c1ccc(NC(=O)Nc2ccc(-c3nc(-c4ccccc4)nc(N4CCOCC4)n3)cc2)cc1 [Example 556, N-[3-(dimethylamino)propyl]-4-({[4-(4-morpholin-4-yl-6-phenyl-1,3,5-triazin-2-yl)phenyl]carbamoyl}amino)benzamide] | 8.5 nM | 54 nM | 4.4 nM |  | 379 nM |  | 128 nM | 
O=C(Nc1ccc(C(=O)NCCN2CCCCC2)cc1)Nc1ccc(-c2nc(C3CCOCC3)nc(N3CCOCC3)n2)cc1 [Example 514, 4-[({4-[4-morpholin-4-yl-6-(tetrahydro-2H-pyran-4-yl)-1,3,5-triazin-2-yl]phenyl}carbamoyl)amino]-N-(2-piperidin-1-ylethyl)benzamide] | 1.6 nM | 15 nM | 0.17 nM |  | 12 nM |  | < 3.2 nM | 
COCCOc1nc(-c2ccc(NC(=O)Nc3ccc(C(=O)OC)cc3)cc2)nc(N2CCOCC2)n1 [Example 211, methyl 4-[({4-[4-(2-methoxyethoxy)-6-morpholin-4-yl-1,3,5-triazin-2-yl]phenyl}carbamoyl)amino]benzoate] | 80 nM | 108 nM | 6 nM | 254 nM | 389 nM | 389 nM |  | IC50 ([1]; listed as 715): 59.5 nM; IC50 ([2]; listed as 715): 146 nM
O=C(Nc1ccc(F)cc1)Nc1ccc(-c2nc(N3CCOCC3)nc(N3CC4CCC(C3)O4)n2)cc1 [Example 24, 1-(4-fluorophenyl)-3-{4-[4-morpholin-4-yl-6-(8-oxa-3-azabicyclo[3.2.1]oct-3-yl)-1,3,5-triazin-2-yl]phenyl}urea] | 22 nM | 99 nM | 2.7 nM | 122 nM |  | 142 nM |  | 
CCCCc1nc(-c2ccc(NC(=O)Nc3ccc(CNCCN(C)C)cc3)cc2)nc(N2CCOCC2)n1 [Example 252, 1-[4-(4-butyl-6-morpholin-4-yl-1,3,5-triazin-2-yl)phenyl]-3-[4-({[2-(dimethylamino)ethyl]amino}methyl)phenyl]urea] | 22 nM | 184 nM | 18 nM | 219 nM |  | 747 nM |  | 
O=C(Nc1ccncc1)Nc1ccc(-c2nc(-c3cccs3)nc(N3CCOCC3)n2)cc1 [Example 557, 1-{4-[4-morpholin-4-yl-6-(2-thienyl)-1,3,5-triazin-2-yl]phenyl}-3-pyridin-4-ylurea] | 18 nM | 64 nM | 8.55 nM |  | 31 nM |  | 34 nM | 
CN1CCN(CCNC(=O)c2ccc(NC(=O)Nc3ccc(-c4nc(N5CCOCC5)nc(N5C6CCC5COC6)n4)cc3)cc2)CC1 [Example 753, N-[2-(4-methylpiperazin-1-yl)ethyl]-4-[({4-[4-morpholin-4-yl-6-(3-oxa-8-azabicyclo[3.2.1]oct-8-yl)-1,3,5-triazin-2-yl]phenyl}carbamoyl)amino]benzamide] | 2 nM | 31 nM | 0.315 nM |  | 14 nM |  | 4 nM | 
O=C(Nc1ccc(C(=O)N2CCOCC2)cc1)Nc1ccc(-c2nc(N3CCOCC3)nc(N3CCOCC3)n2)cc1 [Example 152, 1-[4-(4,6-dimorpholin-4-yl-1,3,5-triazin-2-yl)phenyl]-3-[4-(morpholin-4-ylcarbonyl)phenyl]urea] | 2 nM | 5 nM | 2 nM | 9 nM |  | 14 nM |  | 
C[C@H]1COCCN1c1nc(-c2ccc(NC(=O)Nc3ccc(C(=O)N(C)CCN(C)C)cc3)cc2)nc(N2CCOC[C@@H]2C)n1 [Example 564, 4-{[(4-{4,6-bis[(3S)-3-methylmorpholin-4-yl]-1,3,5-triazin-2-yl}phenyl)carbamoyl]amino}-N-[2-(dimethylamino)ethyl]-N-methylbenzamide] | 0.6 nM | 16.5 nM | 1 nM |  | 7 nM |  | 1 nM | 
CCN1CCN(C(=O)c2ccc(NC(=O)Nc3ccc(-c4nc(N5CCOCC5)nc(N5CCN(C(=O)N(C)C)CC5)n4)cc3)cc2)CC1 [Example 649, 4-(4-{4-[({4-[(4-ethylpiperazin-1-yl)carbonyl]phenyl}carbamoyl)amino]phenyl}-6-morpholin-4-yl-1,3,5-triazin-2-yl)-N,N-dimethylpiperazine-1-carboxamide] | 6.4 nM | 38 nM | 6 nM |  | 37 nM |  |  | IC50 [4, 10]: 9 nM
O=C(Nc1ccc(F)cc1)Nc1ccc(-c2nc(N3CCOCC3)nc(N3CCOCC3)n2)cc1 [Example 6, 1-[4-(4,6-dimorpholin-4-yl-1,3,5-triazin-2-yl)phenyl]-3-(4-fluorophenyl)urea] | 6 nM | 53 nM | 6 nM | 45 nM |  | 43 nM |  | 
CC(C)N1CCN(C(=O)c2ccc(NC(=O)Nc3ccc(-c4nc(N5CCOCC5)nc(N5C6CCCC5COC6)n4)cc3)cc2)CC1 [Example 805, 1-(4-{[4-(1-methylethyl)piperazin-1-yl]carbonyl}phenyl)-3-{4-[4-morpholin-4-yl-6-(3-oxa-9-azabicyclo[3.3.1]non-9-yl)-1,3,5-triazin-2-yl]phenyl}urea] |  | 64 nM | 0.415 nM |  |  |  |  | IC50 ([4]; Homo sapiens, MDA-MB-361, 72 h, MDA-MB-361 cells, MTS, three days after drug treatment): 3 nM; IC50 ([5]; Homo sapiens, PC3MM2, 72 h, PC3-mm2 cells, MTS, three days after drug treatment): 13 nM
O=C(Nc1ccc(C(=O)NCCN2CCOCC2)cc1)Nc1ccc(-c2nc(N3CCOCC3)nc(N3C4CCC3COC4)n2)cc1 [Example 702, N-(2-morpholin-4-ylethyl)-4-[({4-[4-morpholin-4-yl-6-(3-oxa-8-azabicyclo[3.2.1]oct-8-yl)-1,3,5-triazin-2-yl]phenyl}carbamoyl)amino]benzamide] |  | 126 nM | 0.555 nM |  | 14 nM |  | 4 nM | 
CC(C)N1CCN(C(=O)c2ccc(NC(=O)Nc3ccc(-c4nc(N5CCC5)nc(N5CCOCC5)n4)cc3)cc2)CC1 [Example 492, 1-[4-(4-azetidin-1-yl-6-morpholin-4-yl-1,3,5-triazin-2-yl)phenyl]-3-(4-{[4-(1-methylethyl)piperazin-1-yl]carbonyl}phenyl)urea] |  | 35 nM | 18 nM |  | 57 nM |  |  | IC50 [4, 10]: 26 nM
O=C(Nc1ccc(Cl)cc1)Nc1ccc(-c2nc(N3CCOCC3)nc(N3CCOCC3)n2)cc1 [Example 8, 1-(4-chlorophenyl)-3-[4-(4,6-dimorpholin-4-yl-1,3,5-triazin-2-yl)phenyl]-urea] | 20 nM |  | 8 nM and 68 nM |  |  |  |  | IC50 ([1]; listed as 10): 75 nM; IC50 [4, 11]: 2710 nM; IC50 [5, 11]: 1780 nM
COc1nc(-c2ccc(NC(=O)Nc3ccc(C(=O)NCCN(C)C)cc3)cc2)nc(N2CCOCC2)n1 [Example 244, N-[2-(dimethylamino)ethyl]-4-({[4-(4-methoxy-6-morpholin-4-yl-1,3,5-triazin-2-yl)phenyl]carbamoyl}amino)benzamide] | 1 nM |  |  |  |  |  |  | IC50 ([1]; listed as 721): 0.6 nM; IC50 ([3]; IC50 mTOR): 5.1 nM and 5.65 nM; IC50 ([4]; Homo sapiens, MDA-MB-361, 72 h): < 31 nM; IC50 ([5]; Homo sapiens, PC3MM2, 72 h): 71 nM
O=C(Nc1ccc(C(=O)NCCN2CCCCC2)cc1)Nc1ccc(-c2nc(O[C@H]3CCOC3)nc(N3CCOCC3)n2)cc1 [Example 520, 4-{[(4-{4-morpholin-4-yl-6-[(3S)-tetrahydrofuran-3-yloxy]-1,3,5-triazin-2-yl}phenyl)carbamoyl]amino}-N-(2-piperidin-1-ylethyl)benzamide] | 1.4 nM |  |  |  | 18 nM |  |  | IC50 ([3]; IC50 mTOR): 0.38 nM; IC50 ([4]; Homo sapiens, MDA-MB-361, 72 h): 5 nM
CN1CCN(C(=O)c2ccc(NC(=O)Nc3ccc(-c4nc(N5CCCOCC5)nc(N5CCOCC5)n4)cc3)cc2)CC1 [Example 573, 1-{4-[(4-methylpiperazin-1-yl)carbonyl]phenyl}-3-{4-[4-morpholin-4-yl-6-(1,4-oxazepan-4-yl)-1,3,5-triazin-2-yl]phenyl}urea] |  | 64 nM | 4 nM |  | 206 nM |  |  | IC50 [4, 10]: 99 nM
